Experimental data as given in US8372847B2, “Pyrazinone modulator of corticotropin-releasing factor receptor activity” (Bristol-Myers Squibb Company, priority 2008, dated 2013).

Assays:
[1] = molecular target: T1, CRF1 receptor (Rattus norvegicus, UniProt P35353); assay: CRF1 binding assay, 125I-o-CRF competition, rat frontal cortex membrane; conditions: n=10; for Hill Slope: 125I-o-CRF binding, rat frontal cortex membrane; for IC50: 5 point and 10 point competition assays, read-out: IC50, inhibition of 125I-o-CRF binding to rat frontal cortex membrane
T1 construct: rat frontal cortex membrane as the receptor source; from tissue; host or cells: rat frontal cortex
T1 sequence (P35353 24-415): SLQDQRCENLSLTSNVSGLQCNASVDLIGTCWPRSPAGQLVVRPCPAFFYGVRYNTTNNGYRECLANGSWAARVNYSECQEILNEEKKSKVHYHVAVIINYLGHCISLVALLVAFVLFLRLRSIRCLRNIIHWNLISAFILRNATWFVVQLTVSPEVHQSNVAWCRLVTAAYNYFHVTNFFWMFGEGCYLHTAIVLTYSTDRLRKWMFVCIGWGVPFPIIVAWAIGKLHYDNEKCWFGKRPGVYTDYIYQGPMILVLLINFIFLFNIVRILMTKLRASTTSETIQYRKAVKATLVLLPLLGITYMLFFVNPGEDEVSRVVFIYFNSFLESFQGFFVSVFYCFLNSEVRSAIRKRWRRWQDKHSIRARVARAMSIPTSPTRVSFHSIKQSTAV
Experimental: CRF1 Binding Assay. Frozen rat frontal cortex was thawed rapidly in assay buffer containing 50 mM Hepes (pH 7.0 at 23° C.), 10 mM MgCl2, 2 mM EGTA, 1 μg/ml aprotinin, 1 μg/ml leupeptin, 1 μg/ml pepstatin A, 0.005% Triton X-100, 10 U/ml bacitracin and 0.1% ovalbumin and homogenized. The suspension was centrifuged at 32000×g for 30 minutes. The resulting supernatant was discarded and the pellet resuspended by homogenization in assay buffer and centrifuged again. The supernatant was discarded and the pellet resuspended by homogenization in assay buffer and frozen at −70° C. On the day of the experiment aliquots of the homogenate were thawed quickly and 25 μg/well added to 150 pM ^125I-ovine-CRF (^125I-o-CRF) and drugs in a total volume of 100 μl assay buffer. The assay mixture was incubated for 2 hr at 21° C. Bound and free radioligand were then separated by rapid filtration using glass fiber filters (Whatman GF/B, pretreated with 0.3% PEI (polyethylenimine)) on a Brandel Cell Harvester. Filters were then washed multiple times with ice cold wash buffer (PBS w/o Ca^2+ and Mg^2+, 0.01% Triton X-100; pH 7.0 at 23° C.). Non-specific binding was defined using 1 μM DMP696, a CRF1 selective antagonist [Li, Y-W. et al., CNS Drug Reviews 11: 21-52, (2005)]. Filters were then counted in a Wallac Wizard gamma counter. IC50 values were determined in a five point (five drug concentrations) or ten point (ten drug concentrations) competition assay using non-linear regression by Microsoft Excel-fit.
Binding Results. The primary screen to determine binding potency (IC50 value) of (S)-4-(1-cyclopropyl-2-methoxyethyl)-6-(6-(difluoromethoxy)-2,5-dimethylpyridin-3-ylamino)-5-oxo-4,5-dihydropyrazine-2-carbonitrile at the CRF1 receptor was a competition binding experiment utilizing ^125I-o-CRF as the labeled peptide ligand and rat frontal cortex membrane as the receptor source. […] (S)-4-(1-Cyclopropyl-2-methoxyethyl)-6-(6-(difluoromethoxy)-2,5-dimethylpyridin-3-ylamino)-5-oxo-4,5-dihydropyrazine-2-carbonitrile also bound with high affinity to the native CRF1 receptors present on the human retinoblastoma cell line Y79.

[2] = system: Male Sprague-Dawley rats; conditions: previous CRF1 antagonists, literature (McElroy 2002; Lelas 2004); cited from earlier work
[3] = molecular target: T2, CRF2 receptor (Sus scrofa, UniProt B8Q4Z9); assay: CRF2 binding assay, 125I-sauvagine competition, porcine choroid plexus membrane; conditions: n=3; read-out: IC50 at CRF2 receptors of porcine choroid plexus membrane
T2 construct: the CRF2 receptors endogenously expressed on the porcine choroid plexus membrane; from tissue; host or cells: porcine choroid plexus
Experimental: CRF2 Binding Assay. Frozen porcine choroid plexus was thawed rapidly in assay buffer containing 50 mM Hopes (pH 7.0 at 23° C.), 10 mM MgCl2, 2 mM EGTA, 1 μg/ml aprotinin, 1 μg/ml leupeptin, 1 μg/ml pepstatin A, 0.005% Triton X-100, 10 U/ml bacitracin and 0.1% ovalbumin and homogenized. The suspension was centrifuged at 32000×g for 30 minutes. The resulting supernatant was discarded and the pellet resuspended by homogenization in assay buffer and centrifuged again. The supernatant was discarded and the pellet resuspended by homogenization in assay buffer and frozen at −70° C. On the day of the experiment aliquots of the homogenate were thawed quickly and 10 μg/well added to 100 pM ^125I-sauvagine and drugs in a total volume of 100 μl assay buffer. The assay mixture was incubated for 2 hr at 21° C. Bound and free radioligand were then separated by rapid filtration using glass fiber filters (Whatman GF/B, pretreated with 0.3% PEI) on a Brandel Cell Harvester. Filters were then washed multiple times with ice cold wash buffer (PBS w/o Ca^2+ and Mg^2+, 0.01% Triton X-100 (pH 7.0 at 23° C.)). Non-specific binding was defined using 1 μM α-helical CRF (9-41). Filters were then counted in a Wallac Wizard gamma counter. IC50 values were determined in a five point (five drug concentrations) competition assay using non-linear regression by Microsoft Excel-fit.
Binding Results. […]

T2 sequence (B8Q4Z9 1-411): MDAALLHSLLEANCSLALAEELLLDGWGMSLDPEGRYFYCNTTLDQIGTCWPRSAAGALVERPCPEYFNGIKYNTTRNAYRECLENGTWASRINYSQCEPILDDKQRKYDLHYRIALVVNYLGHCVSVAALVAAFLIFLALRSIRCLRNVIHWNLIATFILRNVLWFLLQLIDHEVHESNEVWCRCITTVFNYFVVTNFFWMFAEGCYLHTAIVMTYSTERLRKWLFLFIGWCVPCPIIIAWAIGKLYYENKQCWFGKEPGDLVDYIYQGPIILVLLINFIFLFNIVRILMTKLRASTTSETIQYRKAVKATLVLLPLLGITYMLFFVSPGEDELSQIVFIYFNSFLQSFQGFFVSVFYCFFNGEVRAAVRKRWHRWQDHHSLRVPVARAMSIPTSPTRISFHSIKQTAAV

Row | SMILES | Hill Slope [1] | IC50 [1] | effectiveness in the situational anxiety model [2] | IC50 [3]
1 | COCC(COC)Nc1nc(C)nc2c(-c3ccc(Cl)cc3Cl)c(C)nn12 [DMP696] | 1.00±0.02 | 1.39 ± 0.09 nM | effective | 
2 | COC[C@H](C1CC1)n1cc(C#N)nc(Nc2cc(C)c(OC(F)F)nc2C)c1=O [(S)-4-(1-cyclopropyl-2-methoxyethyl)-6-(6-(difluoromethoxy)-2,5-dimethylpyridin-3-ylamino)-5-oxo-4,5-dihydropyrazine-2-carbonitrile] | 0.94±0.03 | 0.86 ± 0.04 nM |  | > 10000 nM
